# Test results taken from US6348309B1, “Process for inactivating viruses in blood and blood products” (priority 1989, dated 2002).
# Columns and labels:
# Herpes Simplex = assay: MB/light virus inactivation in plasma (Example 6, Table VI); format: cell-based; details: illumination 60 min; * production conditions, plastic bag 250-300 ml plasma
# VSV = format: cell-based, vesicular stomatitis virus
smiles,measurement,setting,value
"CN(C)c1ccc2nc3ccc(=[N+](C)C)cc-3sc2c1 [MB, methylene blue]",Inactivation Rate,Herpes Simplex,>5.50 * log10 TCID50
same,reduction of infectious VSV titer,VSV,more than 6 log10
